One experiment can be described thus: cells. To be noted: Homo sapiens, HCT-116, 72 h.
Experiment [1] deals with A549. Put plainly: cells. The settings on record: Homo sapiens, A549, 72 h.
Description: Cytotoxicity against human A549 cells after 72 hrs by MTT assay
The next experiment relates to HeLa. As to the kind of experiment: cells. To be noted: Homo sapiens, 72 h.
Experiment [2] deals with Tubulin. Put plainly: Inhibition of colchicine binding to tubulin (unknown origin). The format is protein-complex assay, Homo sapiens.
The target of experiment [3] is Tubulin. Put plainly: Inhibition of tubulin (unknown origin) polymerization after 1 hr by multiplate reader method. The format is protein-complex assay, Homo sapiens.
Experiment [4] deals with A549. Put plainly: Induction of apoptosis in human A549 cells at 1 uM after 24 to 72 hrs by propidium iodide staining based flow cytometry. It is filed as functional, cell-based. (Flow cytometry measures light scatter and fluorescence of single cells or particles in a stream.)
Experiment [5] relates to A549. As to the kind of experiment: Induction of growth arrest in human A549 cells assessed as MPM2 levels level at 1 uM after 6 to 48 hrs by immunofluorescence microscopy. The format is functional, cell-based.
The target in a further experiment is Tubulin (Homo sapiens) (UniProt P68371+Q9H4B7+P0DPH7+P68366+Q13509+Q71U36+P04350+Q3ZCM7+P07437+P68363+Q9BQE3+Q6PEY2+Q13885+Q9BVA1+Q9BUF5). As to the kind of experiment: Inhibition of tubulin in human A549 cells assessed as disruption of microtubules at 1 uM incubated for 6 hrs by immunofluorescence staining. It is filed as cell-based.
For experiment [6], the system named is A549. Put plainly: Induction of cell cycle arrest in human A549 cells assessed as accumulation at G2/M phase accumulation at 1 uM after 48 hrs by propidium iodide staining based flow cytometry. The format is functional.
Experiment [7] concerns A549. Put plainly: Increase in polyploid cells in human A549 cells at 1 uM after 24 to 72 hrs by propidium iodide staining based flow cytometry. The format is functional, cell-based.
Experiment [8] has as its system A549. Put plainly: Induction of growth arrest in human A549 cells assessed as mitotic chromosomes level at 1 uM after 6 to 48 hrs by fluorescence microscopy. It is filed as functional, cell-based.

Each structure is given as a SMILES string. The source made the active and inactive calls. No cut-off for these calls is given here.

Description for HeLa: Cytotoxicity against human HeLa cells after 72 hrs by MTT assay

As for `COc1ccc(/C=C/C(=O)c2cc3c(cc2OC)OCS3)cc1OC`, the IC50 in the experiment “cells” was 740 nM; in the experiment with A549 [1] it was 1.19 µM; in the experiment with HeLa it was 568 nM.

Turning to `COc1ccc(/C=C/C(=O)c2cc3c(cc2OC)SCO3)cc1`, the IC50 at Tubulin [2] was 108 nM; against Tubulin [3] it was 4.15 µM.

Take `COc1ccc(/C=C/C(=O)c2c(O)ccc3c2SCO3)cc1`: the values for the half-inhibitory concentration (IC50) in the experiment “cells”, with A549 [1] and with HeLa were 6900 nM, 10.6 µM and 7700 nM, respectively.

For the compound `O=C(/C=C/c1ccc(Cl)cc1Cl)c1cc2c(cc1OCCN1CCOCC1)OCS2`, the values for the IC50 in “cells”, in the experiment with A549 [1] and in the experiment with HeLa were 980 nM, 1.73 µM and 1550 nM, respectively.

Regarding `COc1cc(/C=C/C(=O)c2cc3c(cc2OCC(=O)O)OCS3)cc(OC)c1OC`, the IC50 in “cells” is greater than 10000 nM; in the experiment on A549 [1], greater than 10 µM; in the experiment with HeLa it was greater than 10000 nM.

Take `COc1ccc(/C=C\c2cc(OC)c(OC)c(OC)c2)cc1O` [COMBRETASTATIN A4]: the IC50 in the experiment “cells” came out at 4 nM; in the experiment with HeLa it was 3 nM.

Turning to `COc1cc2c(cc1C(=O)/C=C/c1ccc(CCN(C)C)cc1)SCO2`, the figures for the IC50 in “cells”, in the experiment on A549 [1] and with HeLa were 2540 nM, 3.4 µM and 1970 nM, respectively.

In the case of `COc1ccc(OC)c(/C=C/C(=O)c2cc3c(cc2OCCN2CCOCC2)OCS3)c1`, the IC50 in “cells” came to 1440 nM; with A549 [1] it was 2.72 µM; in the experiment with HeLa, 2390 nM.

In the case of `COc1cc2c(cc1C(=O)/C=C/c1cc(OC)c(OC)c(OC)c1)SCO2`, the IC50 in the experiment “cells” is 2230 nM; in the experiment with A549 [1] it was 3.47 µM; in the experiment with HeLa, 4060 nM.

With `COc1ccc(/C=C/C(=O)c2c(O)ccc3c2SCO3)cc1F`, the IC50 in “cells” stood at 6590 nM; with A549 [1], 9.43 µM; in the experiment on HeLa, 6840 nM.

Regarding `COc1cc(OC)c(/C=C/C(=O)c2cc3c(cc2OC)OCS3)c(OC)c1`, the IC50 is 352 nM in the experiment “cells”, 0.308 µM in the experiment on A549 [1] and 152 nM in the experiment with HeLa.

In the experiment on A549 [1], `COc1ccc(/C=C/C(=O)c2cc3c(cc2OC)SCO3)cc1O` yielded an IC50 of 0.022 µM.

In the case of `COc1ccc(/C=C/C(=O)c2cc3c(cc2OCCN2CCOCC2)OCS3)cc1F`, the values for the IC50 in “cells”, in the experiment on A549 [1] and in the experiment on HeLa were 1220 nM, 4.29 µM and 710 nM, respectively.

For `O=C(/C=C/c1cccc(Cl)c1)c1c(O)ccc2c1SCO2`, the IC50 in “cells” was 1310 nM; in the experiment on A549 [1], 2.61 µM; in the experiment on HeLa, 2010 nM.

As for `COc1cc2c(cc1C(=O)/C=C/c1ccccc1)SCO2`, the IC50 in the experiment “cells” turned out to be 2250 nM; in the experiment with A549 [1], 4.1 µM; with HeLa, 1920 nM.

For the compound `COc1ccc(/C=C/C(=O)c2cc3c(cc2OC)OCS3)cc1F`, the IC50 was found to be 209 nM in the experiment “cells”, 0.32 µM in the experiment with A549 [1] and 111 nM in the experiment with HeLa.

Take `COc1cc2c(cc1C(=O)/C=C/c1cc(Br)c(OC)c(OC)c1)SCO2`: the IC50 in the experiment “cells” is 2070 nM; in the experiment with A549 [1] it was 3.43 µM; with HeLa, 4040 nM.

For `COc1cc(OC)c(/C=C/C(=O)c2cc3c(cc2OCC(=O)O)OCS3)c(OC)c1`, the results for the IC50 in the experiment “cells”, in the experiment with A549 [1] and in the experiment on HeLa were greater than 10000 nM, greater than 10 µM and greater than 10000 nM, respectively.

`COc1ccc(/C=C/C(=O)c2cc3c(cc2OCC(=O)O)OCS3)cc1`: the IC50 in “cells” is greater than 10000 nM; in the experiment with A549 [1], greater than 10 µM; in the experiment on HeLa, greater than 10000 nM.

`COc1cccc2c1C(=O)c1c(O)c3c(c(O)c1C2=O)C[C@@](O)(C(=O)CO)C[C@@H]3O[C@H]1C[C@H](N)[C@H](O)[C@H](C)O1` [DOXORUBICIN]: the IC50 in the experiment “cells” was found to be 69 nM; with A549 [1], 0.124 µM; in the experiment with HeLa it was 154 nM.

For the compound `CC(=O)O[C@H]1C(=O)[C@@]2(C)[C@H]([C@H](OC(=O)c3ccccc3)[C@]3(O)C[C@H](OC(=O)[C@H](O)[C@@H](NC(=O)c4ccccc4)c4ccccc4)C(C)=C1C3(C)C)[C@]1(OC(C)=O)CO[C@@H]1C[C@@H]2O` [PACLITAXEL], the IC50 in the experiment “cells” was 4 nM.

As for `CCCOc1cc2c(cc1C(=O)/C=C/c1ccc(OC)c(O)c1)OCS2`, the midpoint of inhibition in the experiment on A549 [1], the IC50, lay at 0.009 µM.

On to `COc1ccc(/C=C/C(=O)c2c(O)ccc3c2SCO3)cc1OC`, for which the IC50 in “cells” was 2820 nM; in the experiment on A549 [1], 5.67 µM; with HeLa it was 4550 nM.

Regarding `O=C(/C=C/c1ccccc1)c1c(O)ccc2c1SCO2`, the IC50 stood at 2210 nM in “cells”, 3.66 µM in the experiment with A549 [1] and 2750 nM in the experiment with HeLa.

Regarding `O=C(/C=C/c1ccc(Br)cc1)c1c(O)ccc2c1SCO2`, the IC50 in the experiment “cells” stood at 2870 nM; in the experiment with A549 [1], 3.91 µM; in the experiment on HeLa, 2650 nM.

`COc1ccc(/C=C/C(=O)c2cc3c(cc2OCCN2CCOCC2)OCS3)cc1OC`: the values for the IC50 in “cells”, in the experiment with A549 [1] and in the experiment on HeLa were 2290 nM, 3.78 µM and 3730 nM, respectively.

For `COc1cc2c(cc1C(=O)/C=C/c1ccc(O)cc1)SCO2`, the IC50 in “cells” was determined as 8570 nM; in the experiment with A549 [1], 9.08 µM; with HeLa it was 3260 nM.

Turning to `CCCOc1cc2c(cc1C(=O)/C=C/c1ccc(OC)c(O)c1)SCO2`, the IC50 turned out to be 12 nM in “cells”, 0.012 µM in the experiment with A549 [1] and 5 nM with HeLa.

In the case of `COc1cc2c(cc1C(=O)/C=C/c1ccc(Br)cc1)SCO2`, the IC50 in the experiment “cells” stood at 2160 nM; with A549 [1], 3.12 µM; in the experiment on HeLa it was 2370 nM.

Turning to `COc1ccc(/C=C/C(=O)c2cc3c(cc2OC)OCS3)cc1`, the IC50 was 275 nM in the experiment “cells”; 489 nM on Tubulin [2]; 0.352 µM in the experiment with A549 [1]; 109 nM in the experiment with HeLa; 5.8 µM at Tubulin [3]. The outcome in the experiment with A549 [4], in the experiment on A549 [5], in the experiment with A549 [6], in the experiment on A549 [7] and in the experiment on A549 [8] was Active. The inhibition result at Tubulin (Homo sapiens) was “Active”.

`COc1cc2c(cc1C(=O)/C=C/c1cccc(Cl)c1)SCO2`: the IC50 in the experiment “cells” was found to be 1180 nM; with A549 [1] it was 2.04 µM; with HeLa, 1440 nM.

As for `CN(C)CCOc1ccc(/C=C/C(=O)c2c(O)ccc3c2SCO3)cc1`, the IC50 in the experiment “cells” was 1470 nM; with A549 [1] it was 2.05 µM; with HeLa, 1530 nM.

As for `COc1cc2c(cc1C(=O)/C=C/c1cccc(OC)c1OC)SCO2`, the values for the IC50 in “cells”, in the experiment on A549 [1] and in the experiment with HeLa were 3160 nM, 5.04 µM and 4020 nM, respectively.

Turning to `COc1cc2c(cc1C(=O)/C=C/c1ccc(OCC(=O)O)cc1)SCO2`, the values for the IC50 in “cells”, in the experiment on A549 [1] and in the experiment with HeLa were greater than 10000 nM, greater than 10 µM and greater than 10000 nM, respectively.

On to `COc1cc2c(cc1C(=O)/C=C/c1ccc(Cl)cc1)SCO2`, for which the IC50 was 2090 nM in the experiment “cells”, 3 µM in the experiment with A549 [1] and 1780 nM with HeLa.

For `COc1cc(/C=C/C(=O)c2cc3c(cc2OCCN2CCOCC2)OCS3)cc(OC)c1OC`, the half-maximal inhibitory concentration (IC50) stood at 1440 nM in “cells”, 2.42 µM in the experiment on A549 [1] and 2370 nM in the experiment on HeLa.

As for `O=C(/C=C/c1ccccc1Cl)c1c(O)ccc2c1SCO2`, the IC50 in the experiment “cells” was 1670 nM; in the experiment on A549 [1] it was 3.07 µM; in the experiment on HeLa, 3070 nM.

The term IC50 denotes the concentration at which inhibition is half-maximal. Lower therefore signals higher potency.

The values above are taken from ChEMBL document CHEMBL3352251, “Structural factors affecting affinity of cytotoxic oxathiole-fused chalcones toward tubulin” (Eur J Med Chem, 2015).
